# Data from BindingDB's records for doi:10.1016/j.bmcl.2016.03.078 (Merck Research Laboratories, 2016).
# Target: E3 ubiquitin-protein ligase Mdm2 (Homo sapiens, UniProt Q00987)
# Assay: Displacement of Ac-Phe-Arg-Dpr(fluorophore)-Ac6c-(6-Br)Trp-Glu-Glu-Leu-NH2 from human N-terminal His6-tagged MDM2 (17 to 125 residues) expressed in Escherichia coli by fluorescence polarization assay
# Chain of E3 ubiquitin-protein ligase Mdm2 (Q00987 whole entry, the tested form may be a part): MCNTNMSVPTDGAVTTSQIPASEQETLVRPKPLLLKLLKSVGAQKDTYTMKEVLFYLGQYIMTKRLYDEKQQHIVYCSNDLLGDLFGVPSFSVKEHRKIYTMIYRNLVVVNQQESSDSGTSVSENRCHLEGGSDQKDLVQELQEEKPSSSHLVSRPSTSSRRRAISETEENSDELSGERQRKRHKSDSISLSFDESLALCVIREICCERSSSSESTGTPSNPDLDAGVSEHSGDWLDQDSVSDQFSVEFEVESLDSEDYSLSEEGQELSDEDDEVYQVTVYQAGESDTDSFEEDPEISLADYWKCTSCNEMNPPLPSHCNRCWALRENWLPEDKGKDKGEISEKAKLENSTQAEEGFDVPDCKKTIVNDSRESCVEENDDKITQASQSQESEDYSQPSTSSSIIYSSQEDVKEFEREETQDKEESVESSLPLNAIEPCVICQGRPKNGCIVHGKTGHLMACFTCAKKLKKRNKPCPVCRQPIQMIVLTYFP
compound,measurement,value
O=C(c1cnccc1C(F)(F)F)N1CCCC(Oc2ccc(C(F)(F)F)cc2)(C(=O)N2CCN(c3ccccn3)CC2)C1 (stereo unspecified),IC50,2300 nM
